Measurements taken from EP0321364A2, “Orally administrable cephalosporin derivatives, and the production and uses thereof” (ZAIDAN HOJIN BISEIBUTSU KAGAKU KENKYU KAI, priority 1987, dated 1989).
≈ marks a conversion by molar mass, not a printed value. Read-outs that look alike come from different tables or passages of the source.

Experiments:
[1] = Test 1: urinary recovery after oral administration; format: in vivo; details: mice (ICR-strain, female), 300 mcg per mouse, urine collected until 5 hours after administration, microbial assay, molar percentage
Procedure: To mice (ICR-strain, female, 4 weeks-aged) was orally administered a new cephalosporin compound according to this invention at a dosage of 300 mcg per mouse. Until the end of 5 hours after oral administration of the test cephalosporin compound, all the volumes of urine discharged by the treated mice were collected together, and the total amount of the test compound remaining in the collected urine was measured by a microbial assay method. The urinary recovery of the test compound was calculated in terms of percentage of the molar quantity of the test compound as recovered, against the molar quantity of the test compound as orally given.

[2] = tested on: Rms213/Escherichia coli K-12 W3630; assay: MIC, serial dilution method in Müller-Hinton agar; format: cell-based; details: 18 h
Procedure: (§1) The antibacterial activities of the cephalosporin compounds of the formula (I) according to this invention, specifically the final product compounds of the Examples 1 to 6 given hereinafter, were assayed in term of their minimum inhibitory concentrations (MIC; mcg/ml) against various test bacteria, as determined according to a standard serial dilution method in Müller-Hinton agar medium (a product of Difico company), where the incubation was made at 37°C for 18 hours. For the comparison purpose, the antibacterial spectrum of a known compound, Cefalexin (abbreviated as CEX) was also assayed in the same way as above.

[3] = tested on: Pseudomonas aeruginosa IFO3445; assay: MIC, serial dilution method in Müller-Hinton agar; format: cell-based; details: 37°C, 18 hours
Procedure: as §1

[4] = tested on: Rte16/Escherichia coli K-12 W3630; assay: MIC, serial dilution method in Müller-Hinton agar; format: cell-based; details: 18 h
Procedure: as §1

[5] = tested on: Klebsiella pneumoniae PCI602; assay: MIC, serial dilution method in Müller-Hinton agar; format: cell-based
Procedure: as §1

[6] = tested on: Rms139/MI Pseudomonas aeruginosa; assay: MIC, serial dilution method in Müller-Hinton agar; format: cell-based; details: 18 h
Procedure: as §1

Proteus morganii IFO3848 = assay: MIC, serial dilution method in Müller-Hinton agar; format: cell-based; details: Morganella morganii
Procedure: as §1

Salmonella typhi 901 = assay: MIC, serial dilution method in Müller-Hinton agar; format: cell-based; details: Salmonella enterica, 18 h
Procedure: as §1

Proteus rettgeri IFO3850 = assay: MIC, serial dilution method in Müller-Hinton agar; format: cell-based; details: Providencia rettgeri
Procedure: as §1

[7] = tested on: Staphylococcus aureus FDA209P JC-1; assay: MIC, serial dilution method in Müller-Hinton agar; format: cell-based
Procedure: as §1

[8] = tested on: Salmonella paratyphi 1015; assay: MIC, serial dilution method in Müller-Hinton agar; format: cell-based; details: Salmonella enterica, 37°C, 18 hours
Procedure: as §1

[9] = tested on: Rms823/Escherichia coli K-12 W3630; assay: MIC, serial dilution method in Müller-Hinton agar; format: cell-based; details: 18 h
Procedure: as §1

[10] = tested on: Escherichia coli K-12 C600; assay: MIC, serial dilution method in Müller-Hinton agar; format: cell-based
Procedure: as §1

[11] = tested on: Staphylococcus aureus Terajima; assay: MIC, serial dilution method in Müller-Hinton agar; format: cell-based; details: 37°C, 18 hours
Procedure: as §1

[12] = tested on: Salmonella schottmulleri 8006; assay: MIC, serial dilution method in Müller-Hinton agar; format: cell-based; details: 37°C, 18 hours
Procedure: as §1

[13] = tested on: Bacillus subtilis ATCC6633; assay: MIC, serial dilution method in Müller-Hinton agar; format: cell-based; details: 37°C, 18 hours
Procedure: as §1

[14] = tested on: Klebsiella oxytosa GN10560; assay: MIC, serial dilution method in Müller-Hinton agar; format: cell-based; details: Klebsiella oxytosa GN10560, cefuroximase producing strain, 37°C, 18 hours
Procedure: as §1

Proteus vulgaris OX-19 = assay: MIC, serial dilution method in Müller-Hinton agar; format: cell-based; details: OX19, 37°C, 18 hours
Procedure: as §1

[15] = tested on: Escherichia coli NIHJ-JS-2; assay: MIC, serial dilution method in Müller-Hinton agar; format: cell-based
Procedure: as §1

[16] = tested on: Rms212/Escherichia coli K-12 W3630; assay: MIC, serial dilution method in Müller-Hinton agar; format: cell-based; details: 18 h
Procedure: as §1

[17] = tested on: Salmonella enteritidis G14; assay: MIC, serial dilution method in Müller-Hinton agar; format: cell-based; details: Salmonella enterica
Procedure: as §1

[18] = tested on: Staphylococcus aureus MS353; assay: MIC, serial dilution method in Müller-Hinton agar; format: cell-based
Procedure: as §1

[19] = tested on: Micrococcus luteus ATCC9341; assay: MIC, serial dilution method in Müller-Hinton agar; format: cell-based; details: 37°C, 18 hours
Procedure: as §1

[20] = tested on: Salmonella typhimurium IID971; assay: MIC, serial dilution method in Müller-Hinton agar; format: cell-based; details: Salmonella enterica, 18 h
Procedure: as §1

[21] = K12C600, Escherichia coli K-12 C600, Müller-Hinton agar, 37°C, 18 hours, read-out: MIC
[22] = NIHJJS2, Escherichia coli NIHJ-JS-2, Müller-Hinton agar, 37°C, 18 hours, read-out: MIC
[23] = Salmonella enteritidis G14, Müller-Hinton agar, 37°C, 18 hours, read-out: MIC
[24] = Staphylococcus aureus, MS353, 18 h
[25] = Klebsiella pneumoniae, PCI602, 18 h
[26] = Staphylococcus aureus FDA209P JC-1, Müller-Hinton agar, 37°C, 18 hours, read-out: MIC

| SMILES | dose excreted [1] [%] | MIC [2] [µg/mL] | MIC [3] [µg/mL] | MIC [4] [µg/mL] | MIC [6] [µg/mL] | MIC (Proteus morganii IFO3848; IFO3848, 18 h) [µg/mL] | MIC (Salmonella typhi 901) [µg/mL] | MIC (Proteus rettgeri IFO3850; IFO3850, 18 h) [µg/mL] | MIC [8] [µg/mL] | MIC [9] [µg/mL] | MIC [10, 21] [µg/mL] | MIC [11] [µg/mL] | MIC [12] [µg/mL] | MIC [13] [µg/mL] | MIC [14] [µg/mL] | MIC (Proteus vulgaris OX-19) [µg/mL] | MIC [15, 22] [µg/mL] | MIC [16] [µg/mL] | MIC [19] [µg/mL] | MIC [20] [µg/mL] | further results |
| --- | --- | --- | --- | --- | --- | --- | --- | --- | --- | --- | --- | --- | --- | --- | --- | --- | --- | --- | --- | --- | --- |
| C/C=C\C1=C(C(=O)O)N2C(=O)C(NC(=O)[C@H](N)c3ccc(CO)c(O)c3)[C@H]2SC1 (stereo partly drawn) [Example 4 Compound, 7-{(R)-2-amino-2-(3-hydroxy-4-hydroxymethylphenyl)acetamido)-3-{(Z)-1-propenyl)-3-cephem-4-carboxylic acid] | 58.8 | 6.25 (≈ 14.9 µM) | > 100 | 12.5 (≈ 29.8 µM) | > 100 | 1.56 (≈ 3.72 µM) | 0.78 (≈ 1.86 µM) | 1.56 (≈ 3.72 µM) | 1.56 (≈ 3.72 µM) | 100 (≈ 238 µM) | 3.13 (≈ 7.46 µM) | 0.1 (≈ 0.238 µM) | 1.56 (≈ 3.72 µM) | 0.2 (≈ 0.477 µM) | > 100 | 25 (≈ 59.6 µM) | 6.25 (≈ 14.9 µM) | 12.5 (≈ 29.8 µM) | 0.1 (≈ 0.238 µM) | 1.56 (≈ 3.72 µM) | MIC ([5]; Klebsiella pneumoniae PCI602, Müller-Hinton agar, 37°C, 18 hours, read-out: MIC): 0.78 µg/mL (≈ 1.86 µM); MIC ([7]; Staphylococcus aureus, FDA209P, 18 h): 1.56 µg/mL (≈ 3.72 µM); MIC [17, 23]: 0.78 µg/mL (≈ 1.86 µM); MIC [18, 24]: 1.56 µg/mL (≈ 3.72 µM) |
| C/C=C\C1=C(C(=O)O)N2C(=O)C(NC(=O)[C@H](N)c3ccc(COC)c(OC)c3)[C@H]2SC1 (stereo partly drawn) [Example 6 Compound, 7-{(R)-2-amino-2-(3-methoxy-4-methoxymethylphenyl)acetamido}-3-{(Z)-1-propenyl}-3-cephem-4-carboxylic acid] | 32.9 | 12.5 (≈ 27.9 µM) | > 100 | 25 (≈ 55.9 µM) | > 100 | 1.56 (≈ 3.49 µM) | 12.5 (≈ 27.9 µM) | 12.5 (≈ 27.9 µM) | 3.13 (≈ 6.99 µM) | > 100 | 6.25 (≈ 14 µM) | 0.1 (≈ 0.223 µM) | 1.56 (≈ 3.49 µM) | 0.05 (≈ 0.112 µM) | > 100 | 100 (≈ 223 µM) | 25 (≈ 55.9 µM) | 100 (≈ 223 µM) | 0.025 (≈ 0.0559 µM) | 12.5 (≈ 27.9 µM) | MIC [5, 25]: 1.56 µg/mL (≈ 3.49 µM); MIC [7, 26]: 0.78 µg/mL (≈ 1.74 µM); MIC [17, 23]: 6.25 µg/mL (≈ 14 µM); MIC [18, 24]: 1.56 µg/mL (≈ 3.49 µM) |
| COCC1=C(C(=O)O)N2C(=O)C(NC(=O)[C@H](N)c3ccc(CO)c(O)c3)[C@H]2SC1 (stereo partly drawn) [Example 2 Compound, 7-{(R)-2-amino-2-(3-hydroxy-4-hydroxymethylphenyl)acetamido}-3-methoxymethyl-3-cephem-4-carboxylic acid] | 48.3 | 12.5 (≈ 29.5 µM) | > 100 | 25 (≈ 59 µM) | > 100 |  | 6.25 (≈ 14.8 µM) |  | 12.5 (≈ 29.5 µM) | > 100 |  | 0.2 (≈ 0.472 µM) | 6.25 (≈ 14.8 µM) | 0.2 (≈ 0.472 µM) | > 100 | 100 (≈ 236 µM) |  | 50 (≈ 118 µM) | 0.1 (≈ 0.236 µM) | 6.25 (≈ 14.8 µM) | MIC [5, 25]: 6.25 µg/mL (≈ 14.8 µM); MIC (Proteus morganii IFO3848; Proteus morganii IFO3848, Müller-Hinton agar, 37°C, 18 hours, read-out: MIC): 50 µg/mL (≈ 118 µM); MIC (Proteus rettgeri IFO3850; Proteus rettgeri IFO3850, Müller-Hinton agar, 37°C, 18 hours, read-out: MIC): 25 µg/mL (≈ 59 µM); MIC [7, 26]: 1.56 µg/mL (≈ 3.68 µM); MIC ([10]; Escherichia coli, K12C600, 18 h): 12.5 µg/mL (≈ 29.5 µM); MIC ([15]; Escherichia coli, NIHJJS2, 18 h): 12.5 µg/mL (≈ 29.5 µM); MIC ([17]; ENTERITIDIS, 18 h): 6.25 µg/mL (≈ 14.8 µM); MIC ([18]; Staphylococcus aureus MS353, Müller-Hinton agar, 37°C, 18 hours, read-out: MIC): 1.56 µg/mL (≈ 3.68 µM) |
